# What was measured:
# [1] = molecular target: T1, 3-hydroxy-3-methylglutaryl-coenzyme A reductase (Homo sapiens, UniProt P04035); design: species or system Escherichia coli;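 further: enzyme inhibition assay of HMG-CoA reductase using radiolabeled [14C]HMG-CoA as substrate; in other assays of this panel Not Active means under 50% inhibition at 10 µM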
# T1 sequence (P04035 whole entry): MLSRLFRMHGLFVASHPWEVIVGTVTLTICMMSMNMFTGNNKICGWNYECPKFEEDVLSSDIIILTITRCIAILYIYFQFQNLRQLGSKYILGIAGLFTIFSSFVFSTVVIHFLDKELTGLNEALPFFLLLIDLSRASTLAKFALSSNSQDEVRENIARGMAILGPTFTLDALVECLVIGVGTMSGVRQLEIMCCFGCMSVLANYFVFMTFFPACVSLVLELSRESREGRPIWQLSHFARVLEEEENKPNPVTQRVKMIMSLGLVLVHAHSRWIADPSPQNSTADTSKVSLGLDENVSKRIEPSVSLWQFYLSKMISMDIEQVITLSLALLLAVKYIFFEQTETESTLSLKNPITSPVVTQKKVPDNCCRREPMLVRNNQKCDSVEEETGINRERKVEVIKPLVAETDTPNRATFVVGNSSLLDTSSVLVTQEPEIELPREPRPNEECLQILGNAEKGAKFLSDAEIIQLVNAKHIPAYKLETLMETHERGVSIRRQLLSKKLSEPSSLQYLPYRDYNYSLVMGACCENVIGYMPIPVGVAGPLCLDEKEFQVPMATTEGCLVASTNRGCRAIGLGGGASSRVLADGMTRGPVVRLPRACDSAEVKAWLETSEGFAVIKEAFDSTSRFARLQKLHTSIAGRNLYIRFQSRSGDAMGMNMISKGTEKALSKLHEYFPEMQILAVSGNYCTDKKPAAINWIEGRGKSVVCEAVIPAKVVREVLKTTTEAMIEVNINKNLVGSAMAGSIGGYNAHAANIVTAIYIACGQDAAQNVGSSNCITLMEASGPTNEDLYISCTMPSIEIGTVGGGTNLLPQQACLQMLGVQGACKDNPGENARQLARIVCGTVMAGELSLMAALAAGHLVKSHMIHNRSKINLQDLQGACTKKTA
# [2] = molecular target: T2, Thromboxane-A synthase (Homo sapiens, UniProt P24557); assay: biochemical; format: tissue-based, Platelet; settings: platelet;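 further: enzyme inhibition assay with PGH2 supplied as substrate; in other assays of this panel Not Active means under 50% inhibition at 10 µM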
# T2 sequence (P24557 whole entry): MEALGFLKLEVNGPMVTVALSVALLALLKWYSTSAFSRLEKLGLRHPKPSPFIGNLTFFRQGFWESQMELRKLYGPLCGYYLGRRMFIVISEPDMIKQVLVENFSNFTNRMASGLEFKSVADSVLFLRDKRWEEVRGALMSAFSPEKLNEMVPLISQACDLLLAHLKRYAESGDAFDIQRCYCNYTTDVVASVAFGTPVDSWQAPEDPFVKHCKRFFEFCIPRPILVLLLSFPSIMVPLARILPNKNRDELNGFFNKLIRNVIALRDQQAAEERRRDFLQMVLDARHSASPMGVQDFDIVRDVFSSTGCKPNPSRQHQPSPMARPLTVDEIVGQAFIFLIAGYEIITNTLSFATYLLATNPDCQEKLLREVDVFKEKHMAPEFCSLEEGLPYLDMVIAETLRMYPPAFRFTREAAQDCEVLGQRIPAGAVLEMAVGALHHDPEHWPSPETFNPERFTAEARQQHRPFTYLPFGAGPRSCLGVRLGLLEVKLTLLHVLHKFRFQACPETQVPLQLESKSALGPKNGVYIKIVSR
# [3] = molecular target: Insulin receptor (Rattus norvegicus, UniProt P15127); format: cell membranes, Wistar, Liver, Membrane; further: in other assays of this panel Not Active means under 50% inhibition at 10 µM
# Insulin receptor, sequence (P15127 27-759 limits assumed): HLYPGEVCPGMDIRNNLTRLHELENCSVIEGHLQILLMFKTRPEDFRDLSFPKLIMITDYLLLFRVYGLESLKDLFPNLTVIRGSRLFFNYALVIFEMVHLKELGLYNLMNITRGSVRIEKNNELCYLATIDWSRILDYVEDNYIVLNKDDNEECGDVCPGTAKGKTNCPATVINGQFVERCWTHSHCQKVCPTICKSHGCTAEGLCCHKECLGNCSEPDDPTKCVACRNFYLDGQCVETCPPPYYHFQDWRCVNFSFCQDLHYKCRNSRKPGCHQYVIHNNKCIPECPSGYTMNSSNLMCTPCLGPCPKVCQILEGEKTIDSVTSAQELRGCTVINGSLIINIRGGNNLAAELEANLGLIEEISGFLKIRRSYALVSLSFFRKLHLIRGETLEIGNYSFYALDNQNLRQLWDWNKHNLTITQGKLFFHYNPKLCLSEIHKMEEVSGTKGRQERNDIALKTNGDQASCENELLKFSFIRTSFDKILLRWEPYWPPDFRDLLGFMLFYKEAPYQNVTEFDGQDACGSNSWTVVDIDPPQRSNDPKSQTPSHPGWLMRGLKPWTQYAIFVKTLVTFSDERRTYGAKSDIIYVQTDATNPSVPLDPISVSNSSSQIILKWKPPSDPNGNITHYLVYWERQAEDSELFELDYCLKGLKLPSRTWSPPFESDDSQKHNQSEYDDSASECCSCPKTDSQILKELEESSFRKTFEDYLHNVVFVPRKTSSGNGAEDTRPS
# Insulin receptor, sequence (P15127 764-1383 limits assumed): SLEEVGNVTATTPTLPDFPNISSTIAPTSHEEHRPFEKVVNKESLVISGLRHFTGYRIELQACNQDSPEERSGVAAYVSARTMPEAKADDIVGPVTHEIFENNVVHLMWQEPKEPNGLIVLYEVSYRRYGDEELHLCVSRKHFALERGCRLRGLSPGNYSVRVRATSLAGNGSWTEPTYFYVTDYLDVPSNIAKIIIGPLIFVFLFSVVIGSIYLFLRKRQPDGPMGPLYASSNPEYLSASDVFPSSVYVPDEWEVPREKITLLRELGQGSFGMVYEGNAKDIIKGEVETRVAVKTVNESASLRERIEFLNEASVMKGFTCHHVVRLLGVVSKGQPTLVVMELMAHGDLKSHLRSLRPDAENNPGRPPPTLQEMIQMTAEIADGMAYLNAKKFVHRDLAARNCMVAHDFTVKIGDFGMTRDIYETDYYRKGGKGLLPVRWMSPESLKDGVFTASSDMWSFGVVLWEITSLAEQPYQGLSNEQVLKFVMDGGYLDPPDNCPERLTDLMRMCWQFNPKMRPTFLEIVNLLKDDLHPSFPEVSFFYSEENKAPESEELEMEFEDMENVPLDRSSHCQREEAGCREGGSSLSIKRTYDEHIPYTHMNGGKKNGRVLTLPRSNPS
# [4] = molecular target: T3, Muscarinic acetylcholine receptor M2 (Homo sapiens, UniProt P08172); format: cell membranes, CHO-K1, Membrane; settings: cho-k1; further: in other assays of this panel Not Active means under 50% inhibition at 10 µM
# T3 sequence (P08172 whole entry): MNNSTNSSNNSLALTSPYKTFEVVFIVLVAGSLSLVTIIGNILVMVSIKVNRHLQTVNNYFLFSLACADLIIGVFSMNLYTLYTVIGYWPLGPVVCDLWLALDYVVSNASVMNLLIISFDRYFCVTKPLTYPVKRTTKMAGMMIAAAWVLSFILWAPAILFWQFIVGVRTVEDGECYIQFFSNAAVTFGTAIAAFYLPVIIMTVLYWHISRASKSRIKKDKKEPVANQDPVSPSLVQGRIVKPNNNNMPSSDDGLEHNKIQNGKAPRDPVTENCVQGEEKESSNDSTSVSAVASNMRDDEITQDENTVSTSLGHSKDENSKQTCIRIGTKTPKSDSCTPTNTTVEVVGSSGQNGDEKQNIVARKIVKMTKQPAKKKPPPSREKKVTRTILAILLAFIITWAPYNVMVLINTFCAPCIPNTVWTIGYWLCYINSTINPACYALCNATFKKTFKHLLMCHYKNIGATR
# [5] = DRUGMATRIX: Glutamate, Kainate radioligand binding (ligand: [3H] Kainic acid); format: cell membranes, Rattus norvegicus, Wistar, Brain, Membrane; settings: Not Active = under 50% inhibition at 10 µM
# [6] = molecular target: T4, Caspase-1 (Homo sapiens, UniProt P29466); design: species or system Escherichia coli
# T4 sequence (P29466 whole entry): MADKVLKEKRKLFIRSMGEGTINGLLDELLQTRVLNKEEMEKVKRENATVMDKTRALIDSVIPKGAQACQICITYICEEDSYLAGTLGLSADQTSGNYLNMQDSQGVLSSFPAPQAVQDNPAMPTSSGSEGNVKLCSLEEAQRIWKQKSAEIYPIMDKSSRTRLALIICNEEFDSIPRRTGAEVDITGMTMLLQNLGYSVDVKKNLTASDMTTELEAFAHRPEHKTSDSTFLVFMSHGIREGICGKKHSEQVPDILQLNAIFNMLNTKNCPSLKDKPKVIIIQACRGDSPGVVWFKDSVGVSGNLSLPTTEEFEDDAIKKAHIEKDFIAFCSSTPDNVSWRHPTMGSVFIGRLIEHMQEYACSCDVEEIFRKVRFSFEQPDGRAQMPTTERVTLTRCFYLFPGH
# [7] = DRUGMATRIX: Sigma2 radioligand binding (ligand: [3H] Ifenprodil); format: cell membranes, Rattus norvegicus, Wistar, Brain, Membrane; settings: Not Active = under 50% inhibition at 10 µM
Compound,IC50 [1],IC50 [2],IC50 [3],IC50 [4],IC50 [5],Ki [5],IC50 [6],IC50 [7],Ki [7],IC50 ([7]; read-out: IC50) [nM],Ki ([7]; read-out: Ki) [nM]
COc1ccc2c(c1)[C@]13CCCC[C@@H]1[C@H](C2)N(C)CC3 [DEXTROMETHORPHAN],Not Active,Not Active,Not Active,Not Active,Not Active,Not Active,Not Active,Not Active,Not Active,–,–
COP(=O)(OC)OC=C(Cl)Cl [DICHLORVOS],Not Active,Not Active,Not Active,Not Active,Not Active,Not Active,Not Active,Not Active,Not Active,–,–
CCN[C@@H]1C[C@H](N)[C@@H](O[C@H]2OC(CN)=CC[C@H]2N)[C@H](O)[C@H]1O[C@H]1OC[C@](C)(O)[C@H](NC)[C@H]1O [NETILMICIN],Not Active,Not Active,Not Active,Not Active,Not Active,Not Active,Not Active,Not Active,Not Active,–,–
CN(C)/N=N/c1[nH]cnc1C(N)=O [DACARBAZINE],Not Active,Not Active,Not Active,Not Active,Not Active,Not Active,Not Active,Not Active,Not Active,–,–
O=NN(CCCl)C(=O)NCCCl [CARMUSTINE],Not Active,Not Active,Not Active,Not Active,Not Active,Not Active,Not Active,Not Active,Not Active,–,–
Oc1ccc(OCc2ccccc2)cc1 [MONOBENZONE],Not Active,Not Active,Not Active,Not Active,Not Active,Not Active,Not Active,Not Active,Not Active,–,–
O=C1CC2(CCCC2)CC(=O)N1CCCCN1CCN(c2ncccn2)CC1 [BUSPIRONE],Not Active,Not Active,Not Active,Not Active,Not Active,Not Active,Not Active,–,–,3380,2080
Nc1ccn([C@@H]2CS[C@H](CO)O2)c(=O)n1 [LAMIVUDINE],Not Active,Not Active,Not Active,Not Active,Not Active,Not Active,Not Active,Not Active,Not Active,–,–
COc1ccc2c(c1)c(CC(=O)O)c(C)n2C(=O)c1ccc(Cl)cc1 [INDOMETHACIN],Not Active,Not Active,Not Active,Not Active,Not Active,Not Active,Not Active,Not Active,Not Active,–,–
CC(C)[C@H]1CC[C@H](C(=O)N[C@H](Cc2ccccc2)C(=O)O)CC1 [NATEGLINIDE],Not Active,Not Active,Not Active,Not Active,Not Active,Not Active,Not Active,Not Active,Not Active,–,–
CCCC(=O)Nc1ccc(OCC(O)CNC(C)C)c(C(C)=O)c1 (stereo unspecified) [ACEBUTOLOL],Not Active,Not Active,Not Active,Not Active,Not Active,Not Active,Not Active,Not Active,Not Active,–,–
C[C@]12CC[C@@H]3c4ccc(OC(=O)c5ccccc5)cc4CC[C@H]3[C@@H]1CC[C@@H]2O [ESTRADIOL BENZOATE],Not Active,Not Active,Not Active,Not Active,Not Active,Not Active,Not Active,Not Active,Not Active,–,–
CC1(C)O[C@@H]2C[C@H]3[C@@H]4C[C@H](F)C5=CC(=O)C=C[C@]5(C)[C@H]4[C@@H](O)C[C@]3(C)[C@]2(C(=O)CO)O1 [FLUNISOLIDE],Not Active,Not Active,Not Active,Not Active,Not Active,Not Active,Not Active,Not Active,Not Active,–,–
CC1=C(C(=O)O)N2C(=O)[C@@H](NC(=O)[C@H](N)c3ccccc3)[C@H]2SC1 [CEPHALEXIN ANHYDROUS],Not Active,Not Active,Not Active,Not Active,Not Active,Not Active,Not Active,Not Active,Not Active,–,–
COC(=O)C1=C(C)NC(C)=C(C(=O)OCC(C)C)C1c1ccccc1[N+](=O)[O-] (stereo unspecified) [NISOLDIPINE],Not Active,Not Active,Not Active,Not Active,Not Active,Not Active,Not Active,Not Active,Not Active,–,–
CC(=O)Nc1ccc(O)cc1 [ACETAMINOPHEN],Not Active,Not Active,Not Active,Not Active,Not Active,Not Active,Not Active,Not Active,Not Active,–,–
CCc1c2c(nc3ccc(OC(=O)N4CCC(N5CCCCC5)CC4)cc13)-c1cc3c(c(=O)n1C2)COC(=O)[C@]3(O)CC [IRINOTECAN],Not Active,Not Active,Not Active,Not Active,Not Active,Not Active,Not Active,Not Active,Not Active,–,–
C[C@]12CC[C@@H]3c4ccc(O)cc4CC[C@H]3[C@@H]1CC[C@@H]2O [ESTRADIOL],Not Active,Not Active,Not Active,Not Active,Not Active,Not Active,Not Active,Not Active,Not Active,–,–
C#C[C@]1(OC(C)=O)CC[C@H]2[C@@H]3CCC4=CC(=O)CC[C@@H]4[C@H]3CC[C@@]21C [NORETHINDRONE ACETATE],Not Active,Not Active,Not Active,Not Active,Not Active,Not Active,Not Active,Not Active,Not Active,–,–
